In one assay the target is T1, EGF Receptor (Homo sapiens, UniProt P00533).
T1 construct: expressed in transfected cells; host or cells: NIH 3T3/C7 (mouse fibroblasts engineered to express human EGF-R)
Briefly: bio EGF (EGF Receptor ELISA). It counts as biochemical. The gist of the method: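 Cells engineered to express human EGFR, seeded in 0.5% serum for ~40 h, then exposed to drug (stock diluted to 1:200 final, 1% DMSO) before 5 min EGF stimulation at 25 nM final. Lysates captured on anti-EGFR-coated plates, and phosphotyrosine detected by anti-pTyr/HRP ELISA at 410 nm. Percent inhibition calculated relative to control wells after negative-control subtraction.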
On the technique in general: An ELISA detects its analyte on a solid surface through an enzyme-linked reagent.

A further assay concerns the target GST-Flk1 (UniProt P35918). Briefly: GST-FLK-1 bioassay (bio flkGST). The format is biochemical. The gist of the method:
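ELISA with Sf9-expressed GST-Flk1cd (5 ng/well) phosphorylating plate-coated poly(Glu,Tyr) 4:1 in Hepes pH 7.5 with MnCl2 and ATP (2 μM as 4× stock), 15 min at room temperature; EDTA stop. Phosphotyrosine detected with PY99-HRP and ABTS at 410 nm.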

Molecules are shown by their SMILES.

The text below walks through data of US6706709B2, “Indolinone derivatives as protein kinase/phosphatase inhibitors” (Sugen, Inc., priority 2000, dated 2004).

As a reminder, the IC50 is the concentration that gives 50% inhibition. Lower therefore signals greater potency.

T1 sequence (P00533 25-1210): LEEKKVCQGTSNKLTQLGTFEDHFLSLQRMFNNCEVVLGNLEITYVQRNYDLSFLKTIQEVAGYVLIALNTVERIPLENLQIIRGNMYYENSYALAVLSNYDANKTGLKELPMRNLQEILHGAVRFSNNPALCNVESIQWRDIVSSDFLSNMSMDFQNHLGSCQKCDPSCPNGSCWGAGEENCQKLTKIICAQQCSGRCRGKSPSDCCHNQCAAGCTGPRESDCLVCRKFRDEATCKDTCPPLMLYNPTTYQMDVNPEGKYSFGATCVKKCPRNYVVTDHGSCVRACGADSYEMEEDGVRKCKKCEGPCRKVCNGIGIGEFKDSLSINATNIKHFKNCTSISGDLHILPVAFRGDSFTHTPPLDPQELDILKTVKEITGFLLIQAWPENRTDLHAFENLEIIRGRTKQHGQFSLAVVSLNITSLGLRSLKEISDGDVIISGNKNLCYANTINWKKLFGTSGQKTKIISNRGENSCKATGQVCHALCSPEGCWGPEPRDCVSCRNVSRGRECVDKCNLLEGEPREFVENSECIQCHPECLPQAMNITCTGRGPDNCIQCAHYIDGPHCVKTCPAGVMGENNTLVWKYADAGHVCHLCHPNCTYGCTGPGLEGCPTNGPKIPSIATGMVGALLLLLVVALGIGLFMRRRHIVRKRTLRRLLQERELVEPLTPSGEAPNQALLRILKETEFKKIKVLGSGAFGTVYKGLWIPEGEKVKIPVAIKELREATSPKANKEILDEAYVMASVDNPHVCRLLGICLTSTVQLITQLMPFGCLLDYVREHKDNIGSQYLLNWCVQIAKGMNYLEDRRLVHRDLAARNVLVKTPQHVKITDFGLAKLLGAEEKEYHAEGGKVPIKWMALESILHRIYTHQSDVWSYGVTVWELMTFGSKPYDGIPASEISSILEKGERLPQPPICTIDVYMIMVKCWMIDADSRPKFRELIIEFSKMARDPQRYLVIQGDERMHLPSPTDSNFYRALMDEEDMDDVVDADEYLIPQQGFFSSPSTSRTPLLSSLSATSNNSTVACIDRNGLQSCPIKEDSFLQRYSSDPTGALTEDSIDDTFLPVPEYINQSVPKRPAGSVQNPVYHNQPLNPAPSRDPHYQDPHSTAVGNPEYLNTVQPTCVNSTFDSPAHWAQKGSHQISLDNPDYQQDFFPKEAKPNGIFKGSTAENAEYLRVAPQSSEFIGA

As to `O=C1Nc2ccc(S(=O)(=O)N3CCc4cc(Br)ccc43)cc2C1=Cc1cc2cc(OCCN3CCOCC3)ccc2[nH]1` [IN-064, 5-(5-bromo-2,3-dihydro-indole-1-sulfonyl)-3-[5-(2-morpholin-4-yl-ethoxy)-1H-indol-2-ylmethylene]-1,3-dihydro-indol-2-one], the IC50 at EGF Receptor was more than 20 µM; against GST-Flk1 it was 17800 nM.

For the compound `CCN(CC)CCCc1ccc2[nH]c(C=C3C(=O)Nc4ccccc43)cc2c1` [IN-001, 3-[5-(3-diethylamino-propyl)-1H-indol-2-ylmethylene]-1,3-dihydro-indol-2-one], the IC50 was more than 100 µM against EGF Receptor and 860 nM against GST-Flk1.

With `CCN(CC)CCCc1ccc2[nH]c(C=C3C(=O)Nc4ccc(Br)cc43)cc2c1` [IN-002, 5-bromo-3-[5-(3-diethylamino-propyl)-1H-indol-2-ylmethylene]-1,3-dihydro-indol-2-one], the IC50 against EGF Receptor is 2.87 µM; on GST-Flk1, 30 nM.

For the compound `CCN(CC)CCOc1ccc2[nH]c(C=C3C(=O)Nc4ccc(Br)cc43)cc2c1` [IN-017, 5-bromo-3-[5-(2-diethylamino-ethoxy)-1H-indol-2-ylmethylene]-1,3-dihydro-indol-2-one], the IC50 is 4.67 µM against EGF Receptor and 10 nM against GST-Flk1.

With `CN(C)S(=O)(=O)c1ccc2c(c1)C(=Cc1cc3ccccc3[nH]1)C(=O)N2` [IN-075, 3-(1H-indol-2-ylmethylene)-2-oxo-2,3-dihydro-1H-indole-5-sulfonic acid dimethylamide], the figures for the concentration for half-maximal inhibition (IC50) against EGF Receptor and on GST-Flk1 were more than 100 µM and 6510 nM, respectively.

Take `O=C1Nc2ccccc2C1=Cc1cc2cc(OCCN3CCOCC3)ccc2[nH]1` [IN-007, 3-[5-(2-morpholin-4-yl-ethoxy)-1H-indol-2-ylmethylene]-1,3-dihydro-indol-2-one]: the IC50 against EGF Receptor was found to be 37.4 µM; at GST-Flk1 it was 400 nM.

Consider `CN(c1cccc(Cl)c1)S(=O)(=O)c1ccc2c(c1)C(=Cc1cc3cc(OCCN4CCCC4)ccc3[nH]1)C(=O)N2` [IN-048, 2-oxo-3-[5-(2-pyrrolidin-1-yl-ethoxy)-1H-indol-2-ylmethylene]-2,3-dihydro-1H-indole-5-sulfonic acid (3-chloro-phenyl)-methyl-amide], for which the IC50 at EGF Receptor is 2.13 µM; at GST-Flk1, 1160 nM.

For `NS(=O)(=O)c1ccc2c(c1)C(=Cc1cc3cc(OCCN4CCOCC4)ccc3[nH]1)C(=O)N2` [IN-040, 3-[5-(2-morpholin-4-yl-ethoxy)-1H-indol-2-ylmethylene]-2-oxo-2,3-dihydro-1H-indole-5-sulfonic acid amide], the IC50 on EGF Receptor is more than 100 µM; at GST-Flk1 it was 210 nM.

As to `COc1ccccc1-c1ccc2c(c1)NC(=O)C2=Cc1cc2cc(OCCN3CCOCC3)ccc2[nH]1` [IN-037, 6-(2-methoxy-phenyl)-3-[5-(2-morpholin-4-yl-ethoxy)-1H-indol-2-ylmethylene]-1,3-dihydro-indol-2-one], the IC50 at EGF Receptor was more than 20 µM; at GST-Flk1, 4380 nM.

Turning to `O=C1Nc2cc(-c3ccccc3)ccc2C1=Cc1cc2cc(OCCN3CCOCC3)ccc2[nH]1` [IN-009, 3-[5-(2-morpholin-4-yl-ethoxy)-1H-indol-2-ylmethylene]-6-phenyl-1,3-dihydro-indol-2-one], the IC50 was more than 100 µM against EGF Receptor and 9420 nM at GST-Flk1.

In the case of `O=C1Nc2cc(-c3ccc(F)cc3)ccc2C1=Cc1cc2cc(OCCN3CCOCC3)ccc2[nH]1` [IN-038, 6-(4-fluoro-phenyl)-3-[5-(2-morpholin-4-yl-ethoxy)-1H-indol-2-ylmethylene]-1,3-dihydro-indol-2-one], the half-inhibitory concentration (IC50) was more than 20 µM at EGF Receptor and more than 10000 nM against GST-Flk1.

`O=C1Nc2ccc(S(=O)(=O)Nc3ccc(Cl)cc3F)cc2C1=Cc1cc2cc(OCCN3CCOCC3)ccc2[nH]1` [IN-061, 3-[5-(2-morpholin-4-yl-ethoxy)-1H-indol-2-ylmethylene]-2-oxo-2,3-dihydro-1H-indole-5-sulfonic acid (4-chloro-2-fluoro-phenyl)-amide]: the IC50 at EGF Receptor was 4.46 µM; at GST-Flk1, 390 nM.

Regarding `O=C1Nc2cc(-c3cccnc3)ccc2C1=Cc1cc2cc(OCCN3CCOCC3)ccc2[nH]1` [IN-034, 3-[5-(2-morpholin-4-yl-ethoxy)-1H-indol-2-ylmethylene]-6-pyridin-3-yl-1,3-dihydro-indol-2-one], the IC50 at EGF Receptor was more than 20 µM; at GST-Flk1, 14000 nM.

On to `O=C1Nc2ccc(Br)cc2C1=Cc1cc2cc(OCCN3CCOCC3)ccc2[nH]1` [IN-008, 5-bromo-3-[5-(2-morpholin-4-yl-ethoxy)-1H-indol-2-ylmethylene]-1,3-dihydro-indol-2-one], for which the 50% inhibitory concentration (IC50) on EGF Receptor is 1.97 µM; against GST-Flk1 it was 220 nM.

As to `O=C1Nc2ccc(S(=O)(=O)N3CCCc4ccccc43)cc2C1=Cc1cc2cc(OCCN3CCCC3)ccc2[nH]1` [IN-050, 5-(3,4-dihydro-2H-quinoline-1-sulfonyl)-3-[5-(2-pyrrolidin-1-yl-ethoxy)-1H-indol-2-ylmethylene]-1,3-dihydro-indol-2-one], the IC50 is 2.4 µM against EGF Receptor and 710 nM at GST-Flk1.

On to `CNS(=O)(=O)c1ccc2c(c1)C(=Cc1cc3cc(OCCN4CCOCC4)ccc3[nH]1)C(=O)N2` [IN-053, 3-[5-(2-morpholin-4-yl-ethoxy)-1H-indol-2-ylmethylene]-2-oxo-2,3-dihydro-1H-indole-5-sulfonic acid methylamide], for which the IC50 against EGF Receptor was 15.2 µM; against GST-Flk1, 1210 nM.

`CN(C)S(=O)(=O)c1ccc2c(c1)C(=Cc1c[nH]c3ccccc13)C(=O)N2` [IN-072, 3-(1H-indol-3-ylmethylene)-2-oxo-2,3-dihydro-1H-indole-5-sulfonic acid dimethylamide]: the IC50 was more than 100 µM at EGF Receptor and more than 20000 nM at GST-Flk1.

In the case of `O=C1Nc2ccc(S(=O)(=O)N3CCc4ccccc4C3)cc2C1=Cc1cc2cc(OCCN3CCOCC3)ccc2[nH]1` [IN-063, 5-(3,4-dihydro-1H-isoquinoline-2-sulfonyl)-3-[5-(2-morpholin-4-yl-ethoxy)-1H-indol-2-ylmethylene]-1,3-dihydro-indol-2-one], the IC50 is more than 20 µM at EGF Receptor and 14300 nM at GST-Flk1.

`CN(c1cccc(Cl)c1)S(=O)(=O)c1ccc2c(c1)C(=Cc1cc3cc(OCCN4CCOCC4)ccc3[nH]1)C(=O)N2` [IN-060, 3-[5-(2-morpholin-4-yl-ethoxy)-1H-indol-2-ylmethylene]-2-oxo-2,3-dihydro-1H-indole-5-sulfonic acid (3-chloro-phenyl)-methyl-amide]: the IC50 at EGF Receptor is more than 20 µM; against GST-Flk1, 8550 nM.

As for `O=C1Nc2ccccc2C1=Cc1cc2cc(OCCN3CCCC3)ccc2[nH]1` [IN-013, 3-[5-(2-pyrrolidin-1-yl-ethoxy)-1H-indol-2-ylmethylene]-1,3-dihydro-indol-2-one], the IC50 on EGF Receptor stood at 41.3 µM; against GST-Flk1 it was 100 nM.

Regarding `CCN(CC)CCOc1ccc2[nH]c(C=C3C(=O)Nc4ccccc43)cc2c1` [IN-016, 3-[5-(2-diethylamino-ethoxy)-1H-indol-2-ylmethylene]-1,3-dihydro-indol-2-one], the figures for the IC50 on EGF Receptor and against GST-Flk1 were more than 10 µM and 50 nM, respectively.

With `CNS(=O)(=O)c1ccc2c(c1)C(=Cc1ccc3[nH]ccc3c1)C(=O)N2` [IN-070, 3-(1H-indol-5-ylmethylene)-2-oxo-2,3-dihydro-1H-indole-5-sulfonic acid methylamide], the figures for the IC50 at EGF Receptor and at GST-Flk1 were more than 100 µM and 2330 nM, respectively.
